The results in this text go back to US10420759B2, “Small molecule therapies for pulmonary hypertension” (Creighton University, priority 2016, dated 2019).

Assay [1] has as its system mouse isolated extralobar pulmonary arteries. Kind of assay: Relaxation of pre-constricted mouse isolated extralobar pulmonary artery rings (isometric tension). Conditions: for EC50: Mus musculus; for relaxation: 1 μM. It is filed as cell-based. From the text:
Mouse extralobar pulmonary arteries were isolated and prepared using a modification of a previously reported procedure (see e.g., Bockman et al., 1996, J. Pharmacol. Exp. Ther. 278:1235-1243). Mice were euthanized with CO2, the chest was opened, and the heart and lung combined were isolated from surrounding tissue. The main pulmonary artery was isolated from its origin at the right ventricle, past its bifurcation into the right and left pulmonary arteries. The artery segment was removed and placed in Krebs solution (composition in mM: NaCl 126, KCl 5.5, CaCl2 2.5, NaH2PO4 1.2, MgCl2 1.2, NaHCO3 25, dextrose 11.1, Na2Ca EDTA 0.029) equilibrated with 95%02-5% CO2 (pH 7.4). The pulmonary artery segment was cleaned of connective tissue and the main pulmonary artery and its right and left branches were cut into 2 mm long rings. The rings were mounted using 2 stainless steel pins (0.1 mm in diameter) passed through the artery lumen. One pin was attached to a Kent isometric force transducer (Kent Scientific Corp, Torrington Conn.) for measurement of isometric tension while the second pin was held in a fixed position. This allowed for measurement of contraction and relaxation of the ring in the circular direction. Mounted rings were placed in 10 mL of Krebs solution in glass muscle chambers (Radnoti, Monrovia, Calif.) gassed with 95% 02-5% CO2, and maintained at 37° C. Rings were washed with Krebs solution and equilibrated for 90-120 min at a passive resting tension of 150 mg before experiments with test agents were started.
Mouse isolated extralobar pulmonary arteries were pre-constricted with 250 nM 5-HT, a concentration that causes submaximal constriction, as shown in FIG. 2A. Cumulative addition of pirfenidone and CXN-8 caused a concentration-dependent relaxation of mouse pulmonary arteries with a maximal relaxation of 84.9±3.4% and 76.7±7.0%, respectively, as shown in FIG. 2B.
The endothelium was removed from pulmonary arteries by inserting a small (200 μm diameter) wire into the inside lumen of the arteries and gently rubbing the internal surface. To test for the presence of functional endothelium, rings with and without rubbing were contracted with 250 nM 5-HT followed by relaxation using 1 μM of the endothelium dependent vasorelaxant acetylcholine. Rings that relaxed by 5% or less were considered as lacking the endothelium. Rings with and without endothelium were used to test the relaxant effects of CXN-8.
The synthesis of NO is mediated by a family of NO synthase enzymes. It is well accepted that acetylcholine induces relaxation of pulmonary arteries via endothelium-dependent NO production. Nitric oxide production was inhibited in pulmonary arteries by 30 min incubation with the nitric oxide synthesis inhibitor nitro-L-arginine methyl ester (L-NAME, 100 μM). To test for nitric oxide synthase inhibition by L-NAME, rings were contracted with 250 nM 5-HT followed by relaxation using 1 μM of the nitric oxide dependent vasorelaxant acetylcholine. The relaxant effects of CXN-8 were then tested in rings in the absence (with nitric oxide) and the presence (without nitric oxide) of L-NAME.

Assay [2] deals with small pulmonary arteries in mouse precision-cut lung slices. Kind of assay: Relaxation of pre-constricted small pulmonary arteries in mouse precision-cut lung slices. The note with it: for maximal relaxation: % relaxation of pre-constriction to 100 nM 5-HT; for EC50: Mus musculus, pre-constricted with 100 nM 5-HT. The class given is cell-based. On the procedure: Precision cut lung slices were prepared using a modification of previously reported procedures (see e.g., Jiang et al., 2010, J. Pharmacol. Exp. Ther. 334:703-709) and based on the method described by Perez-Joghbi and Sanderson (see e.g., Perez-Joghbi, J. F. and Sanderson, M. J., Am. J. Physiol., 2007, 293:L1000-L1011). Mice were euthanized with CO2, a 2 cm long incision was made in the midline of the neck above the trachea and the trachea was isolated from surrounding tissue. The trachea was cut open and cannulated with PE 90 plastic tubing. A solution of 2% low melting point agarose (Sigma-Aldrich, St. Louis Mo.) in Hanks Buffered Salt solution (HBSS) was prepared at 37° C. Lungs were inflated by injecting 1.2 ml of 2% agarose followed by 0.2 ml of air through the tracheal cannula. The chest was then opened along the midline and the heart was exposed. A solution of 6% gelatin (Sigma-Aldrich, St. Louis Mo.) was prepared in HBSS and 0.4 mL was injected into the right ventricle using a 1 mL syringe and 26 gauge needle, to fill the pulmonary arteries with gelatin. The mouse was cooled to 4° C. for 15 min to harden the agarose and gelatin to stiffen the lung for sectioning. The individual lung lobes were then isolated, glued to a platform and sliced perpendicular to the long axis of the lung. 150 μm thick slices were prepared in ice cold HBSS using an EMS-4000 tissue slicer (Electron Microscopy Sciences, Fort Wash. Pa.). The slices were maintained in sterile, serum-free Dulbecco's modified Eagle's medium (DMEM, Gibco, Grand Island, N.Y.) containing penicillin (100 U/mL, Cellgro, Manassas, Va.), streptomycin (100 μg/mL, Cellgro, Manassas, Va.) and amphotericin B (1.5 μg/mL, Cellgro, Manassas, Va.) at 37° C. and 5% CO2+95% air in a humidified incubator for not more than 3 days.
The method used to measure constriction and relaxation of pulmonary arteries in lung slices is a modification of a method previously described that was used to measure constriction and relaxation of mouse airways (see e.g., Jiang et al., 2010 J. Pharmacol. Exp. Ther. 334:703-709). Lung slices were placed on glass coverslips in a 1 mL volume incubation chamber and held in place with nylon mesh (Small Parts Inc, Miami Lakes, Fla.). The chamber was placed on the stage of a Nikon (Melville, N.Y.) TE200 inverted microscope at room temperature and slices incubated in HBSS containing 10 mM HEPES buffer. Pulmonary arteries in lung slices were imaged using a 20× objective and images recorded using a CoolSNAP HQ2 digital camera (Photometrics, Tucson Ariz.). Images in the absence and the presence of the vasoconstrictor 5-HT (Sigma-Aldrich, St. Louis, Mo.) and the vasorelaxants pirfenidone (Sigma-Aldrich, St. Louis Mo.) and CXN-8, CXN-9 and CXN-16 were collected and vasoconstriction and vasorelaxation was calculated by pixel summing of the cross-sectional area of the pulmonary artery lumen before and after addition of the test agent, using ImageJ software (http://imagej.nih.gov). A decrease in cross-sectional area was defined as vasoconstriction while an increase in cross-sectional area was defined as vasorelaxation, as shown in FIGS. 1A-1B.
First, small pulmonary arteries were pre-constricted in mouse precision-cut lung slices with 100 nM 5-HT, a concentration that causes submaximal constriction of pulmonary arteries, as shown in FIG. 1A.

Assay [3] concerns mouse isolated extralobar pulmonary arteries. Kind of assay: Relaxation of pre-constricted mouse isolated extralobar pulmonary artery rings (isometric tension). The class given is cell-based. Conditions: for EC50: Mus musculus.
Assay [4] deals with hypoxic mice (C57BL/6). Put plainly: RVSP in chronic hypoxia model of PH in mice, acute intravenous CXN-8. The class given is in vivo, mouse. Conditions: 1.4 mg/kg i.v. via femoral vein, baseline 56.4±1.0 mmHg. The method, then:
(§1) Mice (20-25 g) were anesthetized via an intraperitoneal (i.p.) injection of a combination of xylazine (10 mg/kg body weight) and ketamine (100 mg/kg body weight). One-half dose was given as supplemental anesthesia as needed. Animals were placed on a heating pad set to maintain body temperature at approximately 37° C. The neck and upper chest area were cleaned with 70% isopropyl alcohol and a 2 cm long incision was made anterior to the manubrium on the right side and above the jugular fossa. The jugular fossa was identified and the external jugular vein was isolated from surrounding tissue. The anterior projection of the jugular vein was tied off with 8-0 silk suture and a 1 mm incision was made in the jugular vein. A 1 French Mikro-Tip pressure catheter (Millar Inc, Houston, Tex.) catheter was inserted into the jugular vein and advanced through the right atrium into the right ventricle to measure ventricular systolic pressure of mice via a pressure transducer using PowerLab monitoring hardware and software (AD Instruments, Colorado Springs, Colo., USA). The pressure catheter was secured in place using an 8-0 silk suture tied around the catheterized jugular vein. […]
(§2) CXN-8 was administered intravenously in a dose-escalation manner in 15 minute intervals from doses of 0.14 mg/kg to 4.6 mg/kg. Hemodynamic indices, including heart rate (HR) and RVSP were measured. […]

Assay [5] concerns RGS2−/− mice. Kind of assay: RVSP in RGS2 knockout mice, acute intravenous CXN-8. The class given is in vivo, mouse. Conditions: RGS2 KO mice, 4.6 mg/kg i.v. via femoral vein; baseline 36.7±1.9 mmHg. The method, then: as §1, §2
Assay [6] concerns eNOS−/− mice. Put plainly: Right ventricular systolic pressure (RVSP) in eNOS-knockout mice, acute intravenous CXN-8. The class given is in vivo, mouse. The note with it: 4.6 mg/kg i.v. via femoral vein, baseline 40.7±7.6 mmHg. The method, then:
as §1, §2

[7] abbreviates: intact rings pre-constricted with 250 nM 5-HT.
Where [8] appears, read: 250 nM 5-HT, pre-treatment with L-NAME (100 μM).
Where [9] appears, read: endothelium-denuded arteries, 250 nM 5-HT.

What is called EC50 is the concentration that produces a half-maximal response. As for `Cc1ccc(=O)n(-c2ccccc2)c1` [pirfenidone, 5-methyl-1-phenylpyridin-2(1H)-one, reference compound], the results for the EC50 in assay [1] (setting [7]) and in assay [2] (cumulative addition) were 94000 nM and 14300 nM, respectively. The maximal relaxation came out at 84.9±3.4% in assay [1] (setting [7]) and 81.2±4.8% in assay [2].
Take `Cc1ccc(=O)n(-c2ccc(OCCCCN3CCCCC3)cc2)c1` [CXN-9, 5-methyl-1-(4-(4-(piperidin-1-yl)butoxy)phenyl)pyridin-2(1H)-one]: in assay [2], the EC50 was determined as 69.8 nM.
Turning to `Cc1ccc(=O)n(-c2ccc(OCCCCN(C)C)cc2)c1` [CXN-16, 1-(4-(4-(dimethylamino)butoxy)phenyl)-5-methylpyridin-2(1H)-one], in assay [2] (unit inferred), the EC50 was determined as 1700 nM.
As to `CC(=O)OCC[N+](C)(C)C` [acetylcholine, reference compound], the relaxation is listed as 5% in assay [1] (250 nM 5-HT-pre-contracted endothelium-denuded arteries) and 42% in assay [1] (250 nM 5-HT-pre-contracted endothelium-intact arteries).
Take `Cc1ccc(=O)n(-c2ccc(OCCCN3CCCCC3)cc2)c1` [CXN-8, 5-methyl-1-(4-(3-(piperidin-1-yl)propoxy)phenyl)pyridin-2(1H)-one]: the EC50 in assay [3] (ET-1 pre-contracted arteries) is 21.7 nM; in assay [3] (U46619 pre-contracted arteries) it was 40.3 nM; in assay [1] (250 nM 5-HT, absence of L-NAME), 5.6 nM; in assay [1] (setting [8]), 9.9 nM; in assay [1] (setting [9]), 10.9 nM; in assay [1] (setting [7]) it was 5.2 nM. The molecule also displayed an EC50 in assay [2] of 5.6 nM. The maximal relaxation in assay [3] (U46619 (20 nM) pre-contracted arteries) came to 70.6±7.1%; in assay [3] (endothelin 1 (ET-1, 10 nM) pre-contracted arteries) it was 86.6±4.1%; in assay [1] (250 nM 5-HT, absence of L-NAME), 74.5±7.4%; in assay [1] (setting [8]) it was 45.5±6.2%; in assay [1] (setting [9]) it was 47.2±2.9%; in assay [1] (setting [7]) it was 76.7±7.0%. The molecule also returned a maximal relaxation in assay [2] of 77.1±9.6%. The RVSP after treatment was determined as 37.4±1.7 mmHg in assay [4], 19.6±0.9 mmHg in assay [5] and 29.3±1.5 mmHg in assay [6].
